Test results as given in patent publication US8629148B2, “Substituted oxindole-derivatives and the use thereof for the treatment of vasopressin-dependent illnesses” (AbbVie Deutschland GmbH & Co. KG, priority 2007, dated 2014).

Legend:
[1] = target: T1, recombinant human oxytocin receptors (Homo sapiens, UniProt P30559); experiment: Oxytocin receptor binding assay (3H-oxytocin, HEK-293 cells); details: selectivity quotient, human OT vs human V1b
T1 construct: expressed in transfected cells; host or cells: HEK-293, transient expression; lysed and homogenized cells
T1 sequence (P30559 1-389): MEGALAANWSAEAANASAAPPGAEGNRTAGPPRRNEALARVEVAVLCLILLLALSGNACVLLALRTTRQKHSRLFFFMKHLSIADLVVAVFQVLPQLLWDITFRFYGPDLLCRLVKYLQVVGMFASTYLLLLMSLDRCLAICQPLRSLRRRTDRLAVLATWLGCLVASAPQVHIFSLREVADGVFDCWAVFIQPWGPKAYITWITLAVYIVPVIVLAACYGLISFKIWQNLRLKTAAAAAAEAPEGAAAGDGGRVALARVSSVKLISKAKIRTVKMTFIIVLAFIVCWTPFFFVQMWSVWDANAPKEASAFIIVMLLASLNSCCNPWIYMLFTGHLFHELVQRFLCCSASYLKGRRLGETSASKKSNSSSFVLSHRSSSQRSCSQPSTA
Procedure: The residue was taken up in ice-cold lysis buffer (50 mM Tris-HCl, 10% glycerol, pH 7.4 and Roche complete protease inhibitor) and subjected to an osmotic shock at 4° C. for 20 minutes. The lyzed cells were then centrifuged at 750×g at 4° C. for 20 minutes, the residue was taken up in incubation buffer, and aliquots of 10^7 cells/ml were prepared. The aliquots were frozen at −80° C. until used.
On the day of the experiment, the cells were thawed, diluted with incubation buffer and homogenized using a Multipette Combitip (Eppendorf, Hamburg). […] Triplicate determinations were set up. Bound and free radioligand were separated by filtration under vacuum with Whatman GF/B glass fiber filters with the aid of a Skatron cell harvester 7000. The bound radioactivity was determined by liquid scintillation measurement in a Tricarb Beta counter, model 2000 or 2200CA (Packard).

[2] = target: T2, human vasopressin V1b receptor (Homo sapiens, UniProt P47901); experiment: Vasopressin V1b receptor binding assay (3H-AVP displacement, CHO-K1 membranes)
T2 construct: expressed in transfected cells; host or cells: CHO-K1 (cell line hV1b_3H2_CHO), membranes
T2 sequence (P47901 1-424): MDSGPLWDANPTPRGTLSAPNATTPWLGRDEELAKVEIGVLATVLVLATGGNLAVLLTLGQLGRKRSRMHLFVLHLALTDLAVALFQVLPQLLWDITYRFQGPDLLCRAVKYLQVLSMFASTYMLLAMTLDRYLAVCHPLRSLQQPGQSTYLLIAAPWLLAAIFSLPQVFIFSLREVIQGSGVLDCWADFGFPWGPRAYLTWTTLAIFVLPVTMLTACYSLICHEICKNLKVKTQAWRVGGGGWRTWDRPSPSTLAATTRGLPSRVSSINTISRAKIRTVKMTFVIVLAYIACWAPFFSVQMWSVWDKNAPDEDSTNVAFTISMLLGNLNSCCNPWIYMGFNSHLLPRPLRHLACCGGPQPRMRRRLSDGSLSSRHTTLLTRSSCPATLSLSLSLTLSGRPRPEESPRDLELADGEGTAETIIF
Procedure: 1. Vasopressin V1b Receptor Binding Assay:
The substance concentration was further diluted 1:5 in the assay mixture (2% DMSO in the mixture).
All determinations were carried out as triplicate determinations.

[3] = target: human vasopressin V1a receptor (Homo sapiens, UniProt P37288); experiment: Vasopressin V1a receptor binding assay (125I-AVP displacement, CHO-K1 membranes); details: selectivity quotient, human V1a vs human V1b
human vasopressin V1a receptor, sequence (P37288 whole entry): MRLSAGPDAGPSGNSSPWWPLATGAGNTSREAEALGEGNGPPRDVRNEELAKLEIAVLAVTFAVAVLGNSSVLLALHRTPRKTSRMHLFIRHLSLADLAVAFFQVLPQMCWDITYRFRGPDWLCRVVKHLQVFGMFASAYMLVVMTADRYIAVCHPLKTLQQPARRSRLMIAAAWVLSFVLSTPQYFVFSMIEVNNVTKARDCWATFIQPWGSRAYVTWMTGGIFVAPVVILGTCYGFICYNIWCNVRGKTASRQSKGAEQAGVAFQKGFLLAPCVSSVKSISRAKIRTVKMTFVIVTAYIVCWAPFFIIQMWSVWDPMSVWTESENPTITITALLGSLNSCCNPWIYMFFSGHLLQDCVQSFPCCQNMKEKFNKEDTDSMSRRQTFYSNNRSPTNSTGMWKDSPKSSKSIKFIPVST

Ki(h-OT)/Ki(h-V1b)* [1] | Ki [2] | Ki(h-V1a)/Ki(h-V1b)* [3] | Structure (SMILES)
+++ (>75) | 1 to 10 nM | +++ (>75) | CCOc1ncccc1C1(NCc2ccc(N3CCNCC3)cc2)C(=O)N(S(=O)(=O)c2ccc(OC)cc2)c2ccc(C#N)cc21 (stereo not drawn) [Example 30, 3-(2-Ethoxypyridin-3-yl)-1-(4-methoxyphenylsulfonyl)-2-oxo-3-(4-piperazin-1-yl-benzylamino)-2,3-dihydro-1H-indole-5-carbonitrile]
+++ (>75) | < 1 nM | +++ (>75) | CCOc1ncccc1C1(NCc2ccc(N3CCN(CC)CC3)cc2)C(=O)N(S(=O)(=O)c2ccc(OC)cc2)c2ccc(C#N)cc21 (stereo not drawn) [Example 31, 3-(2-Ethoxypyridin-3-yl)-3-[4-(4-ethylpiperazin-1-yl)benzylamino]-1-(4-methoxy-phenylsulfonyl)-2-oxo-2,3-dihydro-1H-indole-5-carbonitrile]
+++ (>75) | < 1 nM | +++ (>75) | CCOc1ncccc1C1(NCc2ccc(N3CCN(C)CC3)cc2)C(=O)N(S(=O)(=O)c2ccc(OC)cc2)c2cc(F)c(C#N)cc21 (stereo not drawn) [Example 33, 3-(2-Ethoxypyridin-3-yl)-6-fluoro-1-(4-methoxyphenylsulfonyl)-3-[4-(4-methylpiperazin-1-yl)benzylamino]-2-oxo-2,3-dihydro-1H-indole-5-carbonitrile]
+++ (>75) | 1 to 10 nM | + (10-<25) | CCOc1ncccc1C1(NCc2ccc(N3CCNCC3)cc2)C(=O)N(S(=O)(=O)c2ccc(OC)cc2)c2cc(F)c(C#N)cc21 (stereo not drawn) [Example 34, 3-(2-Ethoxypyridin-3-yl)-6-fluoro-1-(4-methoxyphenylsulfonyl)-2-oxo-3-(4-piperazin-1-yl-benzylamino)-2,3-dihydro-1H-indole-5-carbonitrile]
+++ (>75) | 1 to 10 nM | + (10-<25) | CCOc1ncccc1C1(NCc2ccc(N3CCN(CC)CC3)cc2)C(=O)N(S(=O)(=O)c2ccc(OC)cc2)c2cc(F)c(C#N)cc21 (stereo not drawn) [Example 35, 3-(2-Ethoxypyridin-3-yl)-3-[4-(4-ethylpiperazin-1-yl)benzylamino]-6-fluoro-1-(4-methoxyphenylsulfonyl)-2-oxo-2,3-dihydro-1H-indole-5-carbonitrile]
+++ (>75) | 1 to 10 nM | ++ (25-75) | CCOc1ccccc1C1(NCc2ccc(N3CCN(C)CC3)cc2)C(=O)N(S(=O)(=O)c2ccc(OC)cc2)c2ccc(C#N)cc21 (stereo not drawn) [Example 37, 3-(2-Ethoxyphenyl)-1-(4-methoxyphenylsulfonyl)-3-[4-(4-methylpiperazin-1-yl)-benzylamino]-2-oxo-2,3-dihydro-1H-indole-5-carbonitrile]
+ (10-<25) | 1 to 10 nM | + (10-<25) | CCOc1ncccc1C1(NCc2cccc(N3CCN(C)CC3)c2)C(=O)N(S(=O)(=O)c2ccc(OC)cc2OC)c2ccc(I)cc21 (stereo not drawn) [Example 38, 1-(2,4-Dimethoxyphenylsulfonyl)-3-(2-ethoxypyridin-3-yl)-5-iodo-3-[3-(4-methylpiperazin-1-yl)benzylamino]-1,3-dihydroindol-2-one]
++ (25-75) | 1 to 10 nM | ++ (25-75) | CCOc1ncccc1C1(NCc2cccc(N3CCN(C)CC3)c2)C(=O)N(S(=O)(=O)c2ccc(OC)cc2)c2ccc(I)cc21 (stereo not drawn) [Example 40, 3-(2-Ethoxypyridin-3-yl)-5-iodo-1-(4-methoxyphenylsulfonyl)-3-[3-(4-methylpiperazin-1-yl)-benzylamino]-1,3-dihydroindol-2-one]
++ (25-75) | 1 to 10 nM | ++ (25-75) | CCOc1ncccc1C1(NCc2cccc(N3CCN(C)CC3)c2)C(=O)N(S(=O)(=O)c2ccccc2OC)c2ccc(I)cc21 (stereo not drawn) [Example 41, 3-(2-Ethoxypyridin-3-yl)-5-iodo-1-(2-methoxyphenylsulfonyl)-3-[3-(4-methylpiperazin-1-yl)-benzylamino]-1,3-dihydroindol-2-one]
+ (10-<25) | 1 to 10 nM | +++ (>75) | CCOc1ncccc1C1(NCc2cccc(N3CCN(C)CC3)c2)C(=O)N(S(=O)(=O)c2ccc(OC)cc2)c2ccc(C#N)cc21 (stereo not drawn) [Example 43, 3-(2-Ethoxypyridin-3-yl)-1-(4-methoxyphenylsulfonyl)-3-[3-(4-methylpiperazin-1-yl)-benzylamino]-2-oxo-2,3-dihydro-1H-indole-5-carbonitrile]
+++ (>75) | 1 to 10 nM | + (10-<25) | CCOc1ncccc1C1(Nc2ccc(N3CCN(C)CC3)cc2)C(=O)N(S(=O)(=O)c2ccc(OC)cc2)c2ccc(I)cc21 (stereo not drawn) [Example 50, 3-(2-Ethoxypyridin-3-yl)-5-iodo-1-(4-methoxyphenylsulfonyl)-3-[4-(4-methylpiperazin-1-yl)-phenylamino]-1,3-dihydroindol-2-one]
+++ (>75) | 10 to 100 nM | ++ (25-75) | CCOc1ncccc1C1(Nc2ccc(N3CCN(CC)CC3)cc2)C(=O)N(S(=O)(=O)c2ccc(OC)cc2)c2ccc(C#N)cc21 (stereo not drawn) [Example 57, 3-(2-Ethoxypyridin-3-yl)-3-[4-(4-ethylpiperazin-1-yl)phenylamino]-1-(4-methoxyphenylsulfonyl)-2-oxo-2,3-dihydro-1H-indole-5-carbonitrile]
+++ (>75) | 1 to 10 nM | ++ (25-75) | CCOc1ncccc1C1(Nc2ccc(N3CCN(C)CC3)cc2)C(=O)N(S(=O)(=O)c2ccc(OC)cc2)c2cc(F)c(C#N)cc21 (stereo not drawn) [Example 59, 3-(2-Ethoxypyridin-3-yl)-6-fluoro-1-(4-methoxyphenylsulfonyl)-3-[4-(4-methylpiperazin-1-yl)phenylamino]-2-oxo-2,3-dihydro-1H-indole-5-carbonitrile]
++ (25-75) | 1 to 10 nM | ++ (25-75) | CCOc1ncccc1C1(Nc2cccc(N3CCN(C)CC3)c2)C(=O)N(S(=O)(=O)c2ccc(OC)cc2OC)c2ccc(I)cc21 (stereo not drawn) [Example 60, 1-(2,4-Dimethoxyphenylsulfonyl)-3-(2-ethoxypyridin-3-yl)-5-iodo-3-[3-(4-methylpiperazin-1-yl)phenylamino]-1,3-dihydroindol-2-one]
++ (25-75) | 1 to 10 nM | + (10-<25) | CCOc1ncccc1C1(Nc2ccc(N3CCN(C)CC3)nc2)C(=O)N(S(=O)(=O)c2ccc(OC)cc2)c2ccc(I)cc21 (stereo not drawn) [Example 68, 3-(2-Ethoxypyridin-3-yl)-5-iodo-1-(4-methoxyphenylsulfonyl)-3-[6-(4-methylpiperazin-1-yl)-pyridin-3-ylamino]-1,3-dihydroindol-2-one]
+ (10-<25) | 1 to 10 nM | ++ (25-75) | CCOc1ncccc1C1(Nc2ccc(C(=O)N3CCN(C)CC3)cc2)C(=O)N(S(=O)(=O)c2ccc(OC)cc2)c2ccc(I)cc21 (stereo not drawn) [Example 70, 3-(2-Ethoxypyridin-3-yl)-5-iodo-1-(4-methoxyphenylsulfonyl)-3-[4-(4-methylpiperazin-1-carbonyl)phenylamino]-1,3-dihydroindol-2-one]
++ (25-75) | 10 to 100 nM | +++ (>75) | CCOc1ncccc1C1(Nc2ccc(C(=O)N3CCN(C)CC3)cc2)C(=O)N(S(=O)(=O)c2ccc(OC)cc2OC)c2ccc(C#N)cc21 (stereo not drawn) [Example 73, 1-(2,4-Dimethoxyphenylsulfonyl)-3-(2-ethoxypyridin-3-yl)-3-[4-(4-methylpiperazin-1-carbonyl)phenylamino]-2-oxo-2,3-dihydro-1H-indole-5-carbonitrile]
